Assay results taken from PMC7854658, “Structural basis for ligand recognition of the neuropeptide Y Y2 receptor” (Nature Communications, 2021).
Where “and” joins values, the source holds several entries; their conditions need not be identical. Equal values may be shown once.

Target: T1, wild-type Y2R (Homo sapiens, UniProt P49146)
T1 construct: expressed in transfected cells; host or cells: HEK293
T1 sequence (P49146 1-381): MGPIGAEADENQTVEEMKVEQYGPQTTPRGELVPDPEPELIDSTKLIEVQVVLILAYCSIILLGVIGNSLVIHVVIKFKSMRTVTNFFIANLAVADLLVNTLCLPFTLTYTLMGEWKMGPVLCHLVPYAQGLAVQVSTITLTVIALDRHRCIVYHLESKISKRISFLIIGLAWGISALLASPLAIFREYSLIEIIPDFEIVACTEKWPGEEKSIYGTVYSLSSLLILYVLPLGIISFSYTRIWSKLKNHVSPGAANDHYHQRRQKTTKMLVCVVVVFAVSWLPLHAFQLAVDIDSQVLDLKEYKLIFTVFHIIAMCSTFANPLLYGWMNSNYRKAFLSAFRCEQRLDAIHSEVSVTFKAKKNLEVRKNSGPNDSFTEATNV
Assay: NPY-induced IP accumulation (IP-One) with or without 1 μM antagonist
Type: cell-based
Conditions: WT
Protocol: The plasmid hY2R_eYFP_pVitro2 encoding the WT Y2R and a fluorophore for investigating the receptor localization was used as template for the generation of receptor point mutations as previously described. Mutagenesis PCR was performed using the Phusion High-Fidelity Polymerase (Thermo Fisher Scientific, Waltham, MA, USA). […] The preparations of the plasmid DNA were performed using the Wizard plus Mini or Midi DNA purification kit (Promega, Madison, WI, USA).
To determine the contribution of residues to antagonist binding, IP-One accumulation assays (Cisbio, Codolet, France) were performed. HEK293 cells were seeded into six-well plates and transiently cotransfected with 3200 ng of receptor plasmid DNA and 800 ng of the chimeric G protein (Gα∆6qi4myr) to redirect the Gαi signaling pathway to the Gαq phospholipase C pathway. Transient transfection was carried out using Metafectene as transfection reagent according to the manufacturer’s protocol (Biontex, Munich, Germany) over night. The cells were then reseeded into white 384-well microplates (Greiner Bio-One, Kremsmünster, Austria) at a density of 15,000 cells per well and grown for additional 24 h.
All dilutions were performed in HBSS containing 20 mM LiCl (stimulation buffer) and DMSO with a final concentration of 0.01%.
To determine the amount of cellular IPs, the FRET acceptor (IP1-d2) and the FRET donor (anti-IP1-Cryptate) were reconstituted and diluted in lysis and detection buffer (1:20) as described in the manufacturer’s protocol. Three microliters of both solutions were added, and the cells were incubated on a tumbler for 60 min.

[1] = 1 μM antagonist, source data Fig. 3

Average EC50 ratio [1]: 157.4 | EC50 ratio (individual experiments) [1]: 143.5 and 171.2 | EC50 ratio (EC50(NPY + 1 μM antagonist)/EC50(NPY)): 144 and 171 and 159 | Ratio change (fold) (EC50 ratio (WT)/EC50 ratio (mutant)): 1 fold
Structure (SMILES): N=C(N)NCCC[C@H](NC(=O)CC1(CC(=O)N2CCN(C3c4ccccc4NC(=O)c4ccccc43)CC2)CCCC1)C(=O)NCCn1c(=O)n(-c2ccccc2)n(-c2ccccc2)c1=O (stereo partly shown) [BIIE0246]
